Here are results for ten compounds from ChEMBL document CHEMBL1201862, “PubChem BioAssay data set” (2004).

Some test systems named below: M14; RXF 393; SF-295; BT-549; SNB-19; NCI-H522; UACC-62; MDA-MB-231; MCF7; SK-OV-3; CAKI-1; OVCAR-5; OVCAR-4; EKVX; LOX IMVI; HOP-62; T47D; UO-31; U-251; K562.
What all share (experiment): NCI-60 cell line screen, 48 h

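Five compound concentrations were applied to cells in 96-well plates for 48 hours; endpoints were derived by simple linear interpolation of the resulting dose-response curve. GI50 is the concentration that inhibits growth by half.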 Activity calls are given as the source filed them. Cut-off read from the data, not from the text of the source: active = GI50 up to about 1.1 µM and inactive = higher.

`COC(=O)/C=C/CC(=O)NS(C)(=O)=O`: the GI50 in the assay on M14, with RXF 393, in the assay with SF-295, with BT-549, in the assay on SNB-19 and in the assay on NCI-H522 was > 10 µM (inactive) throughout. In addition, the GI50 with UACC-62, in the assay with MDA-MB-231, with MCF7, in the assay with SK-OV-3, in the assay with CAKI-1 and in the assay with OVCAR-5 was > 10 µM (inactive) each time. Moreover, the GI50 in the assay on OVCAR-4, in the assay with EKVX, with LOX IMVI, in the assay with HOP-62, with T47D and in the assay with UO-31 was > 10 µM (inactive) in each case. Also, the GI50 in the assay on U-251 was > 10 µM (inactive).

As to `O=c1cc(-c2ccccc2)nc(-n2[nH]c3c(c2=O)CCCC3)[nH]1`, the GI50 in the assay on M14 was 5.68 µM (inactive); in the assay with RXF 393 it was 0.656 µM (active); in the assay on SF-295, 4.33 µM (inactive); in the assay on BT-549 it was 9.38 µM (inactive); in the assay on SNB-19, 11 µM (inactive); in the assay with K562, 2.83 µM (inactive). Moreover, the GI50 in the assay with NCI-H522 is 12.1 µM (inactive); in the assay on UACC-62, 2.32 µM (inactive); in the assay on MDA-MB-231, 2.92 µM (inactive); in the assay on MCF7 it was 3.37 µM (inactive); with SK-OV-3, 17.4 µM (inactive); in the assay with CAKI-1 it was 7.18 µM (inactive). The GI50 with OVCAR-5 was 92.5 µM (inactive); with OVCAR-4, 1.85 µM (inactive); in the assay on EKVX, 4.94 µM (inactive); with T47D it was 1.56 µM (inactive); in the assay on UO-31, 7.29 µM (inactive); in the assay on U-251, 2.55 µM (inactive).

As for `CC1OC(OC2C(O[C@H]3CC[C@@]4(C)C(=CC[C@H]5[C@@H]6C[C@@H]7O[C@]8(CC[C@H](C)CN8)[C@@H](C)[C@@H]7[C@@]6(C)CC[C@@H]54)C3)OC(CO)C(O)C2OC2OC(CO)C(O)C(O)C2O)C(O)C(O)C1O` (stereo partly specified), the GI50 was 18.4 µM (inactive) in the assay on M14; 15.8 µM (inactive) with RXF 393; 18.4 µM (inactive) with SF-295; 17 µM (inactive) in the assay on BT-549; 20.7 µM (inactive) in the assay on SNB-19; > 10 µM (inactive) with K562. In addition, the GI50 with NCI-H522 was 12.8 µM (inactive); with UACC-62, 17.6 µM (inactive); with MDA-MB-231, 21.4 µM (inactive); in the assay on MCF7 it was 16.9 µM (inactive); with SK-OV-3, 16.9 µM (inactive); in the assay with CAKI-1 it was 19.2 µM (inactive). Also, the GI50 in the assay with OVCAR-5 is 14.8 µM (inactive); in the assay with OVCAR-4, 19.8 µM (inactive); in the assay with EKVX, 16.5 µM (inactive); in the assay on LOX IMVI it was 28.3 µM (inactive); with T47D, 19.5 µM (inactive); in the assay on UO-31, 19.1 µM (inactive). Further, the GI50 with U-251 is 37.2 µM (inactive).

Consider `CC(C(=O)O)C(C)(O)C(=O)O` (stereo unspecified), for which the GI50 in the assay with M14, in the assay on RXF 393, in the assay on BT-549, in the assay on SNB-19, in the assay with K562 and in the assay on NCI-H522 was > 100 µM (inactive) each time. Besides, the GI50 with UACC-62 is > 100 µM (inactive); with MDA-MB-231, > 100 µM (inactive); in the assay with MCF7, > 100 µM (inactive); in the assay with SK-OV-3, > 100 µM (inactive); in the assay with CAKI-1, > 100 µM (inactive); in the assay with OVCAR-5, 61.8 µM (inactive). The GI50 in the assay on OVCAR-4, in the assay on EKVX, in the assay with LOX IMVI, in the assay with T47D, in the assay with UO-31 and in the assay with U-251 was > 100 µM (inactive) throughout.

Take `CCN(CC)C(=S)SC1C(=O)NC(=O)NC1=O`: the GI50 in the assay on RXF 393, in the assay on SF-295, in the assay with BT-549, with K562, in the assay with NCI-H522 and in the assay on UACC-62 was > 100 µM (inactive) throughout. The GI50 in the assay on MDA-MB-231, in the assay with MCF7, with SK-OV-3, in the assay on CAKI-1, with OVCAR-5 and in the assay with OVCAR-4 was > 100 µM (inactive) each time. For the same compound, the GI50 in the assay with EKVX, with LOX IMVI, with HOP-62, in the assay with T47D, in the assay on UO-31 and in the assay with U-251 was > 100 µM (inactive) throughout.

With `COC(=O)CCC1(C)C2CCC1/C(=N/O)C2` (stereo unspecified), the GI50 in the assay on M14, in the assay with RXF 393, in the assay on SF-295, in the assay with BT-549, in the assay with SNB-19 and in the assay with K562 was > 100 µM (inactive) in each case. The GI50 in the assay on NCI-H522, in the assay with UACC-62, in the assay with MDA-MB-231, in the assay with MCF7, with SK-OV-3 and in the assay with CAKI-1 was > 100 µM (inactive) in each case. For the same compound, the GI50 with OVCAR-5, in the assay with OVCAR-4, in the assay on EKVX, in the assay with HOP-62, in the assay on T47D and in the assay on UO-31 was > 100 µM (inactive) throughout. The GI50 with U-251 was > 100 µM (inactive).

Consider `CCCCCC(/C=N/NC(N)=S)C(O)(C(F)(F)F)C(F)(F)F` (stereo unspecified), for which the GI50 with M14, in the assay with RXF 393, in the assay on SF-295, in the assay on BT-549, with SNB-19 and with K562 was > 10 µM (inactive) in each case. Also, the GI50 in the assay on NCI-H522, with UACC-62, in the assay with MDA-MB-231, in the assay on MCF7, with SK-OV-3 and with CAKI-1 was > 10 µM (inactive) each time. The GI50 with OVCAR-5, with OVCAR-4, in the assay with EKVX, in the assay on LOX IMVI, in the assay on HOP-62 and in the assay on T47D was > 10 µM (inactive) each time. Further, in the assay on U-251, the GI50 was > 10 µM (inactive).

On to `COC(=O)C1C(=O)CC(C)(O)C(C(=O)OC)C1c1ccc(N(C)C)cc1` (stereo unspecified), for which the GI50 in the assay on RXF 393, with SF-295, with BT-549, with SNB-19, in the assay on K562 and with NCI-H522 was > 100 µM (inactive) each time. The GI50 in the assay with UACC-62, with MDA-MB-231, in the assay with MCF7, with CAKI-1, in the assay with OVCAR-5 and with OVCAR-4 was > 100 µM (inactive) throughout. In addition, the GI50 with EKVX is > 100 µM (inactive); in the assay on LOX IMVI it was 11.6 µM (inactive); in the assay with HOP-62, > 100 µM (inactive); with T47D it was > 100 µM (inactive); with UO-31, > 100 µM (inactive); in the assay with U-251 it was > 100 µM (inactive).

For the compound `COc1ccc(NC(=O)CC(=O)n2nc(C)c(/N=N/c3ccc(C)c(C)c3)c2C)cc1`, the GI50 with M14 was > 100 µM (inactive); in the assay with RXF 393 it was 32.4 µM (inactive); with SF-295, 54.7 µM (inactive); in the assay on BT-549 it was > 100 µM (inactive); with SNB-19, 58.3 µM (inactive); in the assay on NCI-H522, > 100 µM (inactive). The GI50 in the assay with UACC-62 is > 100 µM (inactive); in the assay with MDA-MB-231, > 100 µM (inactive); in the assay with MCF7, > 100 µM (inactive); in the assay with SK-OV-3, 10.8 µM (inactive); with CAKI-1 it was > 100 µM (inactive); with OVCAR-5 it was > 100 µM (inactive). The GI50 in the assay with OVCAR-4 is > 100 µM (inactive); in the assay on EKVX, 15.1 µM (inactive); with LOX IMVI it was 50.5 µM (inactive); with HOP-62 it was 22.9 µM (inactive); in the assay with T47D it was 64.7 µM (inactive); in the assay with UO-31 it was 24.5 µM (inactive). In addition, the GI50 in the assay with U-251 was 23 µM (inactive).

On to `O=C(NCc1ccccc1)c1nn[nH]c1O`, for which the GI50 with M14, in the assay on RXF 393, in the assay with SF-295, in the assay with BT-549, in the assay with SNB-19 and in the assay with K562 was > 100 µM (inactive) in each case. Further, the GI50 with NCI-H522, with UACC-62, in the assay with MDA-MB-231, with MCF7, with SK-OV-3 and in the assay on CAKI-1 was > 100 µM (inactive) each time. Moreover, the GI50 in the assay on OVCAR-5, in the assay with OVCAR-4, in the assay with EKVX, in the assay with HOP-62, in the assay with T47D and in the assay with UO-31 was > 100 µM (inactive) each time. The GI50 in the assay with U-251 was > 100 µM (inactive).
